Assay results published in patent US11613538B2, “Method of inhibiting or reducing a viral infection” (PTC Therapeutics, Inc., priority 2009, dated 2023).
Where two headings read alike, the source gives them in different places.

How the values were obtained:
[1] = Whole-body autoradiography: brain tissue plasma concentration ratios (blood-brain barrier penetration); type: in vivo, rats; settings: in words
[2] = tested on: hypoxia-induced VEGF production in HeLa cells; test: cells; type: cell-based, human
[3] = tested on: HCV genotype 1b replicon; test: HCV subgenomic replicon assay, genotype 1b; type: cell-based; settings: Hepatitis C virus
[4] = tested on: HCV genotype 2a replicon; test: HCV subgenomic replicon assay, genotype 2a; type: cell-based; settings: Hepatitis C virus
[5] = tested on: PV strain Mahoney; test: microbe, parasite or virus in culture; type: cell-based, poliovirus
[6] = tested on: Adenovirus; test: Adenovirus CPE protection assay in HeLa cells; type: cell-based
[7] = tested on: HSV-1; test: HSV-1 CPE protection assay in Vero cells; type: cell-based, herpes simplex virus-1
[8] = tested on: Influenza A; test: microbe, parasite or virus in culture; type: cell-based, influenza virus
[9] = tested on: Parainfluenza; test: Parainfluenza CPE protection assay in Vero cells; type: cell-based, parainfluenza virus
[10] = tested on: Dengue 2; test: Dengue 2 CPE protection assay in Vero E6 cells; type: cell-based, dengue virus
[11] = tested on: WNV; test: WNV CPE protection assay in Vero cells (MTS); type: cell-based, West Nile virus
Description: Antiviral activity of a Compound against WNV is tested in Vero cells by protection of virus induced cytopathic effects (i.e. cytoprotection measured as cell viability, IC50). The effect of a Compound on inhibition of virus induced cytopathic effects is determined using MTS (CellTiter) assay.

[12] = tested on: HIV-1; test: HIV-1 CPE protection assay in MT-2 cells; type: cell-based
Description: Antiviral activity against HIV-1 is determined in a human cell line. […] The activity against HIV may also be tested in human peripheral blood mononuclear cells in cell culture.

[13] = tested on: MT-2 cells; test: CC50 in MT-2 cells (antiviral assay panel); type: cell-based, human; settings: HIV-1 assay line
[14] = tested on: 786-O cells; test: 786-O renal cell carcinoma xenograft (VHL-negative), tumor volume; type: in vivo, mice; settings: for Tumor size (mean±SD): PO
Description: Both sunitinib and rapamycin are used clinically for treatment of renal cancer.
(§1) A total of 100 mice were injected, of which 60 were used in the study.
Groups were taken off study when the mean tumor volume in a group was 1300 mm^3 or more. Vehicle-treatment started on Day 0 and continued through Day 57. Compound #10-treatment started on Day 0 and continued through Day 88.
(§2) Tumors were measured twice per week using digital calipers.
The time to progression to reach a tumor volume 1000 mm^3 was calculated for each mouse. The median values were reported.

[15] = tested on: Caki-1 cells; test: Caki-1 renal cell carcinoma xenograft (VHL-positive), tumor volume; type: in vivo, mice; settings: for Tumor size (mean±SD): PO
Description: The Caki-1 cell line expresses the von Hippel-Lindau (VHL) protein which acts as a tumor suppressor by promoting the rapid degradation of HIF-1α (hypoxia-inducible factor 1α) under normoxia. Under hypoxic conditions, HIF-1α is stabilized and activated by the inability of VHL to act resulting in increased transcription of VEGF that is responsible for the high vascularization of RCC (see Turcotte et al, 2003, Zimmer et al, 2004).
as §1
Groups were taken off study when the mean tumor volume in a group was 1300 mm^3 or more. Vehicle-treatment started on Day 0 and continued through Day 35. Compound #10-treatment started on Day 0 and continued through Day 52.
as §2
[…] The median values were reported.

[16] = Caki-1 xenograft study: body weight and clinical observations; type: in vivo, mice; settings: Caki-1 study
Text: Body Weight: The mice were weighed once per week.

[17] = tested on: c-Myc expression in 786-O cells; test: Western blot of protein expression in 786-O Renal Cancer Cell line (FIG. 7A); type: cell-based; settings: different dose levels (1 μM and 10 μM), in words
Text: The Vinculin, c-Myc, Survivin, ornithine decarboxylase (ODC), Cyclin D and pS6 mRNA are cap-dependent mRNAs that are considered difficult to translate. The blots for each mRNA shown were translated via a cap-independent manner with mTOR inhibition (Akt has been inactivated).

[18] = tested on: protein expression in RCC lines 786-0, 769-P and A498; test: Western blot of protein expression in panel of RCC lines (786-0, 769-P and A498) (FIG. 8); type: cell-based; settings: monotherapy at different μM dose levels; in words
[19] = tested on: cancer in patients; test: Treatment of individual cancer patients (clinical parameters and tumor markers); type: in vivo, human; settings: monotherapy, in words
Description: The arrow symbol represents the timepoint at which docetaxel was reduced to 60 mg/m2.

[20] = tested on: Vero E6 cells
[21] = tested on: HeLa cells; settings: human
[22] = tested on: Vero cells; settings: monkey
[23] = tested on: MDCK cells; settings: dog
[24] = 786-O xenograft study: body weight and clinical observations; settings: 786-O study, in words

Structure (SMILES): COc1ccc([C@H]2c3[nH]c4ccc(Cl)cc4c3CCN2C(=O)Oc2ccc(Cl)cc2)cc1 (racemic) [Compound #10]
- Blood-brain barrier penetration [1]: penetrates the blood-brain barrier
- Inhibition of stress-induced VEGF production (FIG. 1) [2]: inhibit stress-induced VEGF production
- IC50 [3]: 1 nM
- IC50 ([3]; read-out: average IC50): 36 nM
- IC50 [4]: < 3 nM
- IC50 ([5]; Enterovirus C, HeLa): 0.57 nM
- IC90 ([5]; Enterovirus C, HeLa): 2.8 nM
- IC50 ([5]; Enterovirus C, HeLa, read-out: average IC50): 0.6 nM
- decrease in activity when added at the time of infection ([5]; infected HeLa cells): 65 fold
- Inhibition of adenovirus ([6]; at the doses tested, in words): did not inhibit
- IC50 ([6]; unidentified adenovirus, Adenovirus, DNA, HeLa, CPE protection): > 1000 nM
- IC90 ([6]; unidentified adenovirus, Adenovirus, HeLa, CPE protection): > 1000 nM
- IC50 ([7]; Human alphaherpesvirus 1, HSV-1, DNA, Vero, CPE protection): > 1000 nM
- IC90 ([7]; Human alphaherpesvirus 1, HSV-1, Vero, CPE protection): > 1000 nM
- Inhibition of herpes simplex virus-1 (HSV-1) ([7]; at the doses tested, in words): did not inhibit
- Inhibition of influenza virus [8]: did not exhibit any selective inhibition
- IC50 ([8]; Influenza A virus, MDCK): > 1000 nM
- IC90 ([8]; Influenza A virus, MDCK): > 1000 nM
- IC50 ([9]; Parainfluenza, (−) RNA, Vero, CPE protection): 29 nM
- IC90 ([9]; Parainfluenza, Vero, CPE protection): 44 nM
- Activity against parainfluenza virus ([9]; in words): potent activity
- IC50 ([10]; Dengue virus, Vero C1008, Dengue 2, (+) RNA, Vero E6, CPE protection): > 1000 nM
- IC90 ([10]; Dengue virus, Vero C1008, Dengue 2, Vero E6, CPE protection): > 1000 nM
- Activity against dengue ([10]; at the doses tested, in words): inactive
- IC50 ([11]; West Nile virus, WNV, (+) RNA, Vero, CPE protection): 67 nM
- IC90 ([11]; West Nile virus, WNV, Vero, CPE protection): 280 nM
- Activity against West Nile virus (WNV) ([11]; in words): potent activity
- IC50 ([12]; Human immunodeficiency virus 1, MT2): 22 nM
- EC50 ([12]; Human immunodeficiency virus 1, MT2, 72 h, human cell line, 3 days post-infection, normalized to cell number after treatment in the absence of infection, read-out: EC50, prevention of cytopathic effect): 22 nM
- CC50 [13]: 4.1 nM
- Median time for tumors to reach 1000 mm^3 ([14]; Compound #10 10 mg/kg QD PO, sunitinib 75 mg/kg QD PO, rapamycin 15 mg/kg PO, time on study used if not reached): 71 days
- Tumor size (mean±SD) ([14]; Day 57, 10 mg/kg QD): 945±408 mm^3
- Tumors smaller than those in vehicle-treated mice ([14]; Day 57, Compound #10 10 mg/kg QD PO, sunitinib 75 mg/kg QD PO, rapamycin 15 mg/kg PO): 34%
- Tumor size (mean±SD) ([14]; Day 88, 10 mg/kg QD): 1569±671 mm^3
- Cure (tumor size <60 mm^3, not measurable) ([14]; Mouse 2-10, 10 mg/kg, in words): cured
- Median time to reach 1500 mm^3 [15]: 39 days
- Median time for tumors to reach 1000 mm^3 ([15]; Compound #10 10 mg/kg QD PO, sunitinib 75 mg/kg QD PO, rapamycin 15 mg/kg PO): 39 days
- Tumor size (mean±SD) ([15]; Day 35, 10 mg/kg QD): 866±450 mm^3
- Tumors smaller than those in vehicle-treated mice ([15]; Day 35, Compound #10 10 mg/kg QD PO, sunitinib 75 mg/kg QD PO, rapamycin 15 mg/kg PO): 44%
- Tumor size (mean±SD) ([15]; Day 52, 10 mg/kg QD): 1538±1070 mm^3
- Body weight loss from Day 0 ([16]; Day 8 and Day 14): 2.2%
- Survival of treated mice ([16]; all mice, in words): survived until sacrificed
- Body weight change from initial body weight ([16]; in words): transiently lost weight
- Suppression of c-Myc expression (FIG. 7A) [17]: not completely effective in suppressing c-Myc expression
- Effect on protein expression (FIG. 8) [18]: dose-dependent and depended on the RCC line used
- Clinical outcome (FIG. 22) ([19]; patient having cholangiocarcinoma, after four previous therapeutic modalities): stabilization for a tumor marker
- Clinical outcome (FIG. 21) ([19]; patient having chondrosarcoma, after one previous therapeutic modality): stabilization and reduction in a number of clinical parameters and tumor markers
- Clinical outcome (FIG. 20) ([19]; patient having melanoma, after two previous therapeutic modalities): stabilization and reduction in a number of clinical parameters and tumor markers
- Clinical outcome (FIG. 19) ([19]; patient having thyroid cancer, after three previous therapeutic modalities): stabilization and reduction in a number of clinical parameters and tumor markers
- CC50 ([20]; Dengue 2 assay line): 700 nM
- CC50 ([20]; Vaccinia assay line): 83 nM
- CC50 [21]: > 1000 nM
- CC50 [22]: > 1000 nM
- CC50 [23]: > 1000 nM
- Survival of treated mice ([24]; all mice): survived until sacrificed
- Body weight change from initial body weight [24]: did not lose weight
